Assay: xn = mol fraction of the nth substance listed

c1ccccc1 + CO
viscosity [mPa·s]
Settings	293.15 K	298.15 K	303.15 K	313.15 K	323.15 K
101 kPa, x1 = 0.1598	–	–	0.564	0.491	0.411
101 kPa, x1 = 0.3449	–	–	0.563	0.507	0.405
101 kPa, x1 = 0.4474	–	–	0.559	0.478	0.414
101 kPa, x1 = 0.7425	–	–	0.546	0.469	0.411
101 kPa, x1 = 0.8277	–	–	0.54	0.49	0.413
101 kPa, x2 = 0.0504	–	0.581	–	–	–
101 kPa, x2 = 0.1	0.622	0.563	–	–	–
101 kPa, x2 = 0.152	0.615	–	0.534	0.468	0.416
101 kPa, x2 = 0.1998	–	0.553	–	–	–
101 kPa, x2 = 0.2	0.613	–	–	–	–
101 kPa, x2 = 0.272	0.613	–	0.532	0.461	0.414
101 kPa, x2 = 0.2982	–	0.56	–	–	–
101 kPa, x2 = 0.4	0.619	0.561	–	–	–
101 kPa, x2 = 0.444	0.619	–	0.536	0.469	0.415
101 kPa, x2 = 0.5	–	0.566	–	–	–
101 kPa, x2 = 0.6	0.626	0.565	–	–	–
101 kPa, x2 = 0.632	0.624	–	0.535	0.467	0.414
101 kPa, x2 = 0.7	–	0.56	–	–	–
101 kPa, x2 = 0.766	0.619	–	0.534	0.466	0.412
101 kPa, x2 = 0.8	0.626	–	–	–	–
101 kPa, x2 = 0.8009	–	0.557	–	–	–
101 kPa, x2 = 0.9	0.61	–	–	–	–
101 kPa, x2 = 0.901	0.604	–	0.527	0.464	0.411
101 kPa, x2 = 0.9013	–	0.553	–	–	–
101 kPa, x2 = 0.95	–	0.551	–	–	–
101.33 kPa, x1 = 0.04357	0.59	–	0.5121	0.4473	0.3935
101.33 kPa, x1 = 0.0572	–	–	0.562	0.5	0.415
101.33 kPa, x1 = 0.1598	–	–	0.564	0.491	0.411
101.33 kPa, x1 = 0.2216	0.6132	–	0.528	0.4585	0.4016
101.33 kPa, x1 = 0.2552	–	–	0.56	0.505	0.418
101.33 kPa, x1 = 0.3449	–	–	0.563	0.507	0.405
101.33 kPa, x1 = 0.4216	0.6197	–	0.5315	0.4613	0.4039
101.33 kPa, x1 = 0.4474	–	–	0.559	0.478	0.414
101.33 kPa, x1 = 0.603	0.6164	–	0.5296	0.4593	0.4034
101.33 kPa, x1 = 0.7425	–	–	0.546	0.469	0.411
101.33 kPa, x1 = 0.7816	0.6138	–	0.5278	0.4611	0.4073
101.33 kPa, x1 = 0.8277	–	–	0.54	0.49	0.413
101.33 kPa, x1 = 0.9285	0.6252	–	0.5399	0.4736	0.4198
